Laboratory results as given in patent US20020111274A1, “1-alkyl-3-[1-(substituted phenyl) benzotriazol-6-yl] uracils” (BASF Aktiengesellschaft, priority 2000, published 2002).

Tests used:
Set-up in all cases: scale not given here
[1] = test system: GALAP Galium; assay: Postemergence herbicidal evaluation, GALAP; type: in vivo, Galium aparine; conditions: postemergence spray, rated about two-three weeks after treatment
Procedure, shortened: (§1)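 Seedlings grown about two weeks were sprayed with compound in 80/20 acetone/water containing 1.0% methylated seed oil, at the equivalent of about 0.006 to 0.400 kg/ha, through a nozzle at 40 psi. Plants were kept in the greenhouse and rated visually about two to three weeks after treatment.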

[2] = test system: AMBEL Ragweed, Common; assay: Postemergence herbicidal evaluation, AMBEL; type: in vivo, Ambrosia artemisifolia, L.; conditions: postemergence spray, rated about two-three weeks after treatment
Procedure, shortened: as §1

[3] = test system: CHEAL Lambsquarters, Common; assay: Postemergence herbicidal evaluation, CHEAL; type: in vivo, Chenopodium album, L.; conditions: postemergence spray, rated about two-three weeks after treatment
Procedure, shortened: as §1

[4] = test system: ECHOG Barnyardgrass; assay: Postemergence herbicidal evaluation, ECHOG; type: in vivo, Echinochloa crus-galli, (L.) Beau; conditions: postemergence spray, rated about two-three weeks after treatment
Procedure, shortened: as §1

[5] = test system: IPOHE Morningglory, Ivyleaf; assay: Postemergence herbicidal evaluation, IPOHE; type: in vivo, Ipomoea hederacea, (L.) Jacq.; conditions: postemergence spray, rated about two-three weeks after treatment
Procedure, shortened: as §1

[6] = test system: CASOB Sicklepod; assay: Postemergence herbicidal evaluation, CASOB; type: in vivo, Cassia obtusifolia, L.; conditions: postemergence spray, rated about two-three weeks after treatment
Procedure, shortened: as §1

[7] = test system: ZEAMX Corn, Field; assay: Preemergence herbicidal evaluation, ZEAMX; type: in vivo, Zea mays, L. (Sammel-Bezeichnung); conditions: preemergence
Procedure, shortened: (§2)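 Visual ratings were taken four to five weeks after application. Before that, cups sown with seed in potting soil received a spray of compound dissolved in aqueous acetone, equivalent to about 0.013 to 0.800 kg/ha, and stood on greenhouse benches under conventional care.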

[8] = test system: ABUTH Velvetleaf; assay: Preemergence herbicidal evaluation, ABUTH; type: in vivo, Abutilon theophrasti, Medic.; conditions: preemergence
Procedure, shortened: as §2

[9] = test system: AMBEL Ragweed, Common; assay: Preemergence herbicidal evaluation, AMBEL; type: in vivo, Ambrosia artemisifolia, L.; conditions: preemergence
Procedure, shortened: as §2

[10] = test system: ORYSAT Rice, Tebonnet; assay: Postemergence herbicidal evaluation, ORYSAT; type: in vivo, Oryza sativa, (L.); conditions: postemergence spray, rated about two-three weeks after treatment
Procedure, shortened: as §1

[11] = test system: GLXMAW Soybean, Williams; assay: Postemergence herbicidal evaluation, GLXMAW; type: in vivo, Glycine max, (L.) Merr. cv Williams; conditions: postemergence spray, rated about two-three weeks after treatment
Procedure, shortened: as §1

[12] = test system: SETVI Foxtail, Green; assay: Preemergence herbicidal evaluation, SETVI; type: in vivo, Setaria viridis, (L.) Beau; conditions: preemergence
Procedure, shortened: as §2

[13] = test system: CASOB Sicklepod; assay: Preemergence herbicidal evaluation, CASOB; type: in vivo, Cassia obtusifolia, L.; conditions: preemergence
Procedure, shortened: as §2

[14] = test system: IPOHE Morningglory, Ivyleaf; assay: Preemergence herbicidal evaluation, IPOHE; type: in vivo, Ipomoea hederacea, (L.) Jacq.; conditions: preemergence
Procedure, shortened: as §2

[15] = test system: ABUTH Velvetleaf; assay: Postemergence herbicidal evaluation, ABUTH; type: in vivo, Abutilon theophrasti, Medic.; conditions: postemergence spray, rated about two-three weeks after treatment
Procedure, shortened: as §1

[16] = test system: SETVI Foxtail, Green; assay: Postemergence herbicidal evaluation, SETVI; type: in vivo, Setaria viridis, (L.) Beau; conditions: postemergence spray, rated about two-three weeks after treatment
Procedure, shortened: as §1

[17] = test system: CHEAL Lambsquarters, Common; assay: Preemergence herbicidal evaluation, CHEAL; type: in vivo, Chenopodium album, L.; conditions: preemergence
Procedure, shortened: as §2

[18] = test system: TRZAWR Wheat, Winter, cv Riband; assay: Preemergence herbicidal evaluation, TRZAWR; type: in vivo, Triticum aestivum; conditions: preemergence
Procedure, shortened: as §2

[19] = test system: GALAP Galium; assay: Preemergence herbicidal evaluation, GALAP; type: in vivo, Galium aparine; conditions: preemergence
Procedure, shortened: as §2

[20] = test system: ECHOG Barnyardgrass; assay: Preemergence herbicidal evaluation, ECHOG; type: in vivo, Echinochloa crus-galli, (L.) Beau; conditions: preemergence
Procedure, shortened: as §2

[21] = test system: ORYSAT Rice, Tebonnet; assay: Preemergence herbicidal evaluation, ORYSAT; type: in vivo, Oryza sativa, (L.); conditions: preemergence
Procedure, shortened: as §2

[22] = test system: TRZAWR Wheat, Winter, cv Riband; assay: Postemergence herbicidal evaluation, TRZAWR; type: in vivo, Triticum aestivum; conditions: postemergence spray, rated about two-three weeks after treatment
Procedure, shortened: as §1

[23] = test system: GLXMAW Soybean, Williams; assay: Preemergence herbicidal evaluation, GLXMAW; type: in vivo, Glycine max, (L.) Merr. cv Williams; conditions: preemergence
Procedure, shortened: as §2

[24] = test system: ZEAMX Corn, Field; assay: Postemergence herbicidal evaluation, ZEAMX; type: in vivo, Zea mays, L. (Sammel-Bezeichnung); conditions: postemergence spray, rated about two-three weeks after treatment
Procedure, shortened: as §1

## C=CCOc1ccc(-n2nnc3cc(F)c(-n4c(=O)cc(C(F)(F)F)n(C)c4=O)cc32)c(C)c1 [Example 43]
[1]; 0.008 kg/ha
  Postemergence herbicidal rating GALAP: 0.0
[1]; 0.016 kg/ha
  Postemergence herbicidal rating GALAP: 0.0
[1]; 0.032 kg/ha
  Postemergence herbicidal rating GALAP: 1.0
[1]; 0.062 kg/ha
  Postemergence herbicidal rating GALAP: 1.0
[2]; 0.008 kg/ha
  Postemergence herbicidal rating AMBEL: 1.0
[2]; 0.016 kg/ha
  Postemergence herbicidal rating AMBEL: 7.0
[2]; 0.032 kg/ha
  Postemergence herbicidal rating AMBEL: 7.0
[2]; 0.062 kg/ha
  Postemergence herbicidal rating AMBEL: 9.0
[3]; 0.008 kg/ha
  Postemergence herbicidal rating CHEAL: 0.0
[3]; 0.016 kg/ha
  Postemergence herbicidal rating CHEAL: 3.0
[3]; 0.032 kg/ha
  Postemergence herbicidal rating CHEAL: 3.0
[3]; 0.062 kg/ha
  Postemergence herbicidal rating CHEAL: 4.0
[4]; 0.008 kg/ha
  Postemergence herbicidal rating ECHCG: 1.0
[4]; 0.016 kg/ha
  Postemergence herbicidal rating ECHCG: 1.0
[4]; 0.032 kg/ha
  Postemergence herbicidal rating ECHCG: 1.0
[4]; 0.062 kg/ha
  Postemergence herbicidal rating ECHCG: 2.0
[5]; 0.008 kg/ha
  Postemergence herbicidal rating IPOHE: 9.0
[5]; 0.016 kg/ha
  Postemergence herbicidal rating IPOHE: 9.0
[5]; 0.032 kg/ha
  Postemergence herbicidal rating IPOHE: 9.0
[5]; 0.062 kg/ha
  Postemergence herbicidal rating IPOHE: 9.0
[6]; 0.008 kg/ha
  Postemergence herbicidal rating CASOB: 0.0
[6]; 0.016 kg/ha
  Postemergence herbicidal rating CASOB: 0.0
[6]; 0.032 kg/ha
  Postemergence herbicidal rating CASOB: 0.0
[6]; 0.062 kg/ha
  Postemergence herbicidal rating CASOB: 3.0
[7]; rate 0.016 kg/ha
  ZEAMX herbicidal rating: 0.0
[7]; rate 0.032 kg/ha
  ZEAMX herbicidal rating: 0.0
[7]; rate 0.062 kg/ha
  ZEAMX herbicidal rating: 0.0
[7]; rate 0.125 kg/ha
  ZEAMX herbicidal rating: 2.0
[8]; rate 0.016 kg/ha
  ABUTH herbicidal rating: 0.0
[8]; rate 0.032 kg/ha
  ABUTH herbicidal rating: 1.0
[8]; rate 0.062 kg/ha
  ABUTH herbicidal rating: 9.0
[8]; rate 0.125 kg/ha
  ABUTH herbicidal rating: 8.0
[9]; rate 0.016 kg/ha
  AMBEL herbicidal rating: 0.0
[9]; rate 0.032 kg/ha
  AMBEL herbicidal rating: 0.0
[9]; rate 0.062 kg/ha
  AMBEL herbicidal rating: 0.0
[9]; rate 0.125 kg/ha
  AMBEL herbicidal rating: 0.0
[10]; 0.008 kg/ha
  Postemergence herbicidal rating ORYSAT: 2.5
[10]; 0.016 kg/ha
  Postemergence herbicidal rating ORYSAT: 2.0
[10]; 0.032 kg/ha
  Postemergence herbicidal rating ORYSAT: 2.0
[10]; 0.062 kg/ha
  Postemergence herbicidal rating ORYSAT: 3.0
[11]; 0.008 kg/ha
  Postemergence herbicidal rating GLXMAW: 5.0
[11]; 0.016 kg/ha
  Postemergence herbicidal rating GLXMAW: 5.0
[11]; 0.032 kg/ha
  Postemergence herbicidal rating GLXMAW: 5.5
[11]; 0.062 kg/ha
  Postemergence herbicidal rating GLXMAW: 5.5
[12]; rate 0.016 kg/ha
  SETVI herbicidal rating: 0.0
[12]; rate 0.032 kg/ha
  SETVI herbicidal rating: 1.0
[12]; rate 0.062 kg/ha
  SETVI herbicidal rating: 4.0
[12]; rate 0.125 kg/ha
  SETVI herbicidal rating: 7.0
[13]; rate 0.016 kg/ha
  CASOB herbicidal rating: 0.0
[13]; rate 0.032 kg/ha
  CASOB herbicidal rating: 0.0
[13]; rate 0.062 kg/ha
  CASOB herbicidal rating: 0.0
[13]; rate 0.125 kg/ha
  CASOB herbicidal rating: 0.0
[14]; rate 0.016 kg/ha
  IPOHE herbicidal rating: 0.0
[14]; rate 0.032 kg/ha
  IPOHE herbicidal rating: 0.0
[14]; rate 0.062 kg/ha
  IPOHE herbicidal rating: 0.0
[14]; rate 0.125 kg/ha
  IPOHE herbicidal rating: 0.0
[15]; 0.008 kg/ha
  Postemergence herbicidal rating ABUTH: 9.0
[15]; 0.016 kg/ha
  Postemergence herbicidal rating ABUTH: 9.0
[15]; 0.032 kg/ha
  Postemergence herbicidal rating ABUTH: 9.0
[15]; 0.062 kg/ha
  Postemergence herbicidal rating ABUTH: 9.0
[16]; 0.008 kg/ha
  Postemergence herbicidal rating SETVI: 0.0
[16]; 0.016 kg/ha
  Postemergence herbicidal rating SETVI: 1.0
[16]; 0.032 kg/ha
  Postemergence herbicidal rating SETVI: 9.0
[16]; 0.062 kg/ha
  Postemergence herbicidal rating SETVI: 9.0
[17]; rate 0.016 kg/ha
  CHEAL herbicidal rating: 9.0
[17]; rate 0.032 kg/ha
  CHEAL herbicidal rating: 9.0
[17]; rate 0.062 kg/ha
  CHEAL herbicidal rating: 9.0
[17]; rate 0.125 kg/ha
  CHEAL herbicidal rating: 9.0
[18]; rate 0.016 kg/ha
  TRZAWR herbicidal rating: 0.0
[18]; rate 0.032 kg/ha
  TRZAWR herbicidal rating: 0.0
[18]; rate 0.062 kg/ha
  TRZAWR herbicidal rating: 0.0
[18]; rate 0.125 kg/ha
  TRZAWR herbicidal rating: 1.0
[19]; rate 0.016 kg/ha
  GALAP herbicidal rating: 0.0
[19]; rate 0.032 kg/ha
  GALAP herbicidal rating: 0.0
[19]; rate 0.062 kg/ha
  GALAP herbicidal rating: 0.0
[19]; rate 0.125 kg/ha
  GALAP herbicidal rating: 0.0
[20]; rate 0.016 kg/ha
  ECHCG herbicidal rating: 0.0
[20]; rate 0.032 kg/ha
  ECHCG herbicidal rating: 0.0
[20]; rate 0.062 kg/ha
  ECHCG herbicidal rating: 0.0
[20]; rate 0.125 kg/ha
  ECHCG herbicidal rating: 1.0
[21]; rate 0.016 kg/ha
  ORYSAT herbicidal rating: 0.0
[21]; rate 0.032 kg/ha
  ORYSAT herbicidal rating: 0.0
[21]; rate 0.062 kg/ha
  ORYSAT herbicidal rating: 0.0
[21]; rate 0.125 kg/ha
  ORYSAT herbicidal rating: 0.0
[22]; 0.008 kg/ha
  Postemergence herbicidal rating TRZAWR: 3.0
[22]; 0.016 kg/ha
  Postemergence herbicidal rating TRZAWR: 3.0
[22]; 0.032 kg/ha
  Postemergence herbicidal rating TRZAWR: 3.0
[22]; 0.062 kg/ha
  Postemergence herbicidal rating TRZAWR: 3.0
[23]; rate 0.016 kg/ha
  GLXMAW herbicidal rating: 1.0
[23]; rate 0.032 kg/ha
  GLXMAW herbicidal rating: 1.0
[23]; rate 0.062 kg/ha
  GLXMAW herbicidal rating: 0.0
[23]; rate 0.125 kg/ha
  GLXMAW herbicidal rating: 1.0
[24]; 0.008 kg/ha
  Postemergence herbicidal rating ZEAMX: 4.0
[24]; 0.016 kg/ha
  Postemergence herbicidal rating ZEAMX: 5.0
[24]; 0.032 kg/ha
  Postemergence herbicidal rating ZEAMX: 5.0
[24]; 0.062 kg/ha
  Postemergence herbicidal rating ZEAMX: 5.0
